Reference: patent publication US20240165165A1, “PHARMACEUTICAL COMPOSITIONS AND THEIR METHODS OF USE” (The Trustees of Indiana University, priority 2021, published 2024)

How the values were obtained:
[1] = test system: human breast cancer fragments in the inside of the skull; test: Skull diffusion assay, tissue fragments; assay type: cell-based; details: agent in the outside of the skull
Procedure: (§1) Skull diffusion assay. The usage of human breast cancer tissues was approved by the Indiana University Institutional Review Board, and informed consent for research use was obtained from all patients. The experiment was performed following Indiana University's human research protection program policies. A breast cancer tissue (— 1 g; ER/PR+, HER2+), received from Simon Cancer Center Tissue Procurement Core, was manually fragmented with a scalpel into small pieces. Mouse skulls were isolated and rinsed with PBS. They were placed in a 24-well plate with the head top facing the well surface and tumor cells or breast cancer tissue fragments were grown. The well was filled with the control medium or osteocyte-derived CM. Fluphenazine (Sigma-Aldrich), a dopamine receptor antagonist that suppresses the growth of mammary tumor cells, was employed as a positive control to suppress tumor growth.

[2] = test system: EO771 cells in the inside of the skull; test: Skull diffusion assay, MTT-based viability; assay type: cell-based, mouse; details: agent in the outside of the skull
Procedure: as §1

[3] = test system: 4T1.2 cells; test: Western blot of proteins in treated tumor cells; assay type: cell-based, mouse; details: for tumor-promoting genes (Lrp5, MMP9, Runx2, TGFβ, Snail) in 4T1.2 cells: Western blot
Procedure: (§2) Western blot analysis and protein array analysis. Western blot analysis was conducted using the procedure previously described. Antibodies against Lrp5, Runx2, Snail, TGFβ, sclerostin, Calr, p-eIF2α, eIF2α (Cell Signaling, Danvers, MA, USA), LIF, Trail (Novus Biologicals, Centennial, CO, USA), MMP9, NFATc1, cathepsin K (Santa Cruz Biotechnology, Dallas, TX, USA), p53, CXCL2, Ppib (Invitrogen, Carlsbad, CA, USA), Hsp90ab1 (Abcam, Cambridge, UK), and β-actin (Sigma, Saint Louis, MO, USA) were used. A proteome profiler mouse XL cytokine array kit (R&D Systems, Minneapolis, MN, USA) was also employed, and the expression of 111 cytokines and chemokines in MSC-derived CM was determined.

[4] = test system: 4T1.2 mammary tumor cells; test: MTT viability assay; assay type: cell-based, mouse
Source text: (§3) In vitro assays. Cellular viability was examined using an MTT assay (Invitrogen, Carlsbad, CA, USA) with the procedure previously described, as well as an EdU assay with a fluorescence-based cell proliferation kit (Thermo-Fisher, Waltham, MA, USA). The recombinant proteins employed included Filamin A, Pkm, Pdia3, Tpm4, Anxa2, Eef1a1, Cts1, Nme2, Dcn, Calr, Aldoa, Calm1, Tpm3, Ppib, Myh9, Ywhae, Hspa5, Hsp90aa1 (MBS962910, MBS8249600, MBS2010131, MBS145304, MBS2009095, MBS2033168, MBS143355, MBS145412, MBS2557309, MBS2009125, MBS8248528, MBS2018713, MBS144696, MBS2009092, MBS717396, MBS143242, MBS806904, MBS142709; MyBioSource, San Diego, CA, USA), Actin Gamma 1, Actn4, Hspa8, Vimentin (H00000071-P01, H00000081-P01, NBP1-30278, NBP2-35139; Novus, Littleton, CO, USA), and Hsp90ab1 (OPCA05157; Aviva system biology, San Diego, CA, USA). A TRANSWELL® chamber assay was conducted to detect invasive cellular motility, and a wound-healing scratch assay was utilized to evaluate 2-dimensional migratory behavior. The overexpression of Akt, Lrp5, β-catenin, Snail, Calr, and Ppib was conducted by transfecting plasmids (#10841, #115907, #31785, #31697, #51161, #36123; Addgene, Cambridge, MA, USA). […]

[5] = test system: 4T1.2 mammary tumor cells; test: Scratch-based migration assay; assay type: cell-based, mouse
Procedure: Two-dimensional motility assay. A wound-healing scratch motility assay was performed to evaluate 2-dimensional cell motility. Approximately 4×10^5 cells were seeded in 12-well plates. After cell attachment, a plastic pipette tip was used to scratch a gap on the cell layer. Floating cells were removed, and CM was added. Images of the cell-free scratch zone were obtained via an inverted microscope at 0 h, and the areas newly occupied with cells were determined 24-48 h after scratching. The areas were quantified with IMAGE J (National Institutes of Health, Bethesda, MD, USA).
In vitro assays. Cellular viability was examined using an MTT assay (Invitrogen, Carlsbad, CA, USA) with the procedure previously described, as well as an EdU assay with a fluorescence-based cell proliferation kit (Thermo-Fisher, Waltham, MA, USA). […]

[6] = test system: EO771 cells; test: Western blot of proteins in treated tumor cells; assay type: cell-based, mouse
Procedure: Western blot analysis and mass spectrometry. Western blot analysis was conducted using known procedures. Antibodies were used against ANXA1, β-catenin, caspase 3, Lrp5, Lrp6, Runx2, Sclerostin, Snail, TGFβ, NFATc1, cathepsin K (Cell Signaling, Danvers, MA, USA), DMP1, ANXA6, CXCL5 (Abcam, Cambridge, MA, USA), M-CSF, MMP9, OPN, TPM4 (Santa Cruz, Dallas, TX, USA), WISP1 (R&D systems, Minneapolis, MN, USA), β-actin (Sigma, Saint Louis, MO, USA), LIMA1, Trail (Novus, Centennial, CO, USA), p53 and CXCL1 (Invitrogen, Carlsbad, California, USA), and DSP (ProteinTech, Rosemont, IL, USA). The expression levels of Sclerostin and Lrp5 in CM were detected by ELISA (My BioSource, San Diego, CA, USA). Proteins from A5 osteocyte CM, Y4 osteocyte CM, and osteoclast control CM (RAW264.7 cells) were analyzed by the HF Hybrid Quadrupole Orbitrap mass spectrometry. Among 549 identified proteins, 49 proteins presented higher expression levels in A5 CM than Y4 CM and control CM. […]
Western blot analysis and protein array analysis. […] A proteome profiler mouse XL cytokine array kit (R&D Systems, Minneapolis, MN, USA) was also employed, and the expression of 111 cytokines and chemokines in MSC-derived CM was determined. […]

[7] = test system: phosphorylated Akt in MSCs; test: Western blot of phosphorylated Akt; assay type: cell-based, mouse
Procedure: as §2

[8] = Estimation of the diffusion coefficient through the skull; assay type: physicochemical, mouse
Source text: Estimation of the diffusion coefficient through the skull. Suppose that the two aqueous reservoirs are separated by a skull and the solute (albumin) in the first reservoir with the volume V1 is transferred to the second reservoirs with the volume V2. When the volume of the skull is negligible, the change in the solute in the first reservoir is approximated, using the quasi-steady-state flux, N according to Eq. (1) and Eq. (2):
Where t=time, and c 1 (t) and c 2 (t)=concentrations in the first and second reservoirs, respectively, A=skull surface area, D=diffusion coefficient through the skull, and L=skull thickness. Since the decrease in the first reservoir is equivalent to the gain in the second reservoir, Eq. (3) is arrived at:
If the initial concentrations are c1(t=0)=c0 and c2 (t=0)=0, the concentration c1 is predicted as a function of time according to Eq. (4):
The diffusion coefficient of albumin in the skull was estimated as 3.30×10^−8 cm^2/s from the slope (0.7157) of the best-fit line of Eq. (4) in FIG. 36B. Of note, V1=265 μl, V2=65 μl, c0=10 μg/μ1, A=188 mm^2, and L=60 μm.

[9] = test system: 4T1.2 mammary tumor cells; test: EdU proliferation assay; assay type: cell-based, mouse
Procedure: EdU assay. Approximately 2,000 cells were seeded in 96-well plates on day 1. CM was added on day 2 and cellular proliferation was examined using a fluorescence-based cell proliferation kit (CLICK-IT™ EDU ALEXA FLUOR™ 488 Imaging Kit; Thermo-Fisher, Waltham, MA, USA) on day 4. After fluorescent labeling, the number of fluorescently labeled cells was counted and the ratio to the total number of cells was determined.
as §3, with “USA).” for “USA). A TRANSWELL® chamber assay was conducted to detect invasive cellular motility, and a wound-healing scratch assay was utilized to evaluate 2-dimensional migratory behavior. The overexpression of Akt, Lrp5, β-catenin, Snail, Calr, and Ppib was conducted by transfecting plasmids (#10841, #115907, #31785, #31697, #51161, #36123; Addgene, Cambridge, MA, USA).”

[10] = test system: 4T1.2 mammary tumor cells; test: TRANSWELL invasion assay; assay type: cell-based, mouse
Source text: as §3

[11] = test system: EO771 mammary tumor cells in the lung of C57BL/6 mice; test: In vivo extravasation assay; set-up: species or system mouse; details: co-injection into tail vein, 48 h
Procedure: To evaluate the effects of CMs for tumor invasion, the in vivo extravasation assay was conducted. C57BL/6 female mice (5 mice per group) received an injection of 50 μl of fluorescently labeled EO771 cells (1.0×10^6 cells) into the lateral tail veins. Fluorescently labeled EO771 cells were prepared by culturing them with a green fluorescent dye (#4705, Sartorius, Gottingen, Germany) for 20 min at 37° C. Cells were then centrifuged with 1000 rpm for 5 min for harvesting the pellet. The pellet was re-suspended in PBS (placebo group) or osteocyte-derived CM (A5 CM group). Mice will be sacrificed after 48 h for histologically identifying extravascular tumor cells in the lung.

Compound: OCCN1CCN(CCCN2c3ccccc3Sc3ccc(C(F)(F)F)cc32)CC1 [Fluphenazine]
- size of human breast cancer fragments in the inside of the skull [1]: significantly shrunk
- viability of EO771 tumor cells in the inside of the skull [2]: significantly decreased

Compound: Hsp90aa1: Hsp90aa1 recombinant protein
- tumor-promoting genes (Lrp5, MMP9, Runx2, TGFβ, Snail) in 4T1.2 cells [3]: did not alter

Compound: Hsp90ab1: recombinant heat shock protein 90 alpha family class B member 1
- MTT-based viability of 4T1.2 cells [4]: Significant reduction
- tumor-promoting genes (Lrp5, MMP9, Runx2, TGFβ, Snail) in 4T1.2 cells [3]: downregulated
- scratch-based migration of 4T1.2 cells [5]: reduced

Compound: TGFβ
- tumor-promoting/tumorigenic proteins (Lrp5, MMP9, Runx2, TGFβ, Snail, IL1β etc.) in EO771 cells [6]: increased

Compound: Oc1cc2c(cc1O)C(Cc1cccc3ccccc13)NCC2 (stereo not shown) [YS49]
- phosphorylated Akt in MSCs [7]: elevated

Compound: albumin: bovine serum albumin, solute for skull diffusion
- diffusion coefficient across the skull relative to aqueous solution, fold smaller [8]: approximately 20 fold
- diffusion coefficient across the skull ([8]; murine skull, estimated from slope of Eq. (4)): 3.30×10^−8 cm^2/s

Compound: Ppib: recombinant peptidylprolyl isomerase B
- MTT-based viability of 4T1.2 cells [4]: Significant reduction
- EdU-based proliferation of 4T1.2 cells [9]: significantly inhibited
- phosphorylation level of eIF2α in 4T1.2 cells [3]: elevated
- tumor-promoting genes (Lrp5, MMP9, Runx2, TGFβ, Snail) in 4T1.2 cells [3]: suppressed
- TRANSWELL invasion of 4T1.2 cells [10]: significantly inhibited

Compound: COc1cccc(-c2cc(NCc3ccc4c(c3)OCO4)nc(N)n2)c1 [BML284]
- number of EO771 tumor cells in the lung [11]: Reduction
